Test results published in US6914045B2, “Glycopeptide antibiotics” (Wyeth Holdings Corporation, priority 2001, dated 2005).
≈ marks a conversion by molar mass, not a printed value.

Experiments:
Assay in all cases: in vitro antibacterial evaluation, MIC by broth dilution
Format in all cases: cell-based
Escherichia coli = settings: 18 hours at 35° C.
Enterococcus sp. = settings: broth dilution, 18 hours at 35° C.
Method in brief: (§1)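 Inoculum 5×10^5 CFU/mL; concentrations 64 to 0.06 μg/mL; MIC defined as lowest inhibitory level. Conducted by broth dilution under NCCLS guidelines.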

Streptococcus sp. = settings: broth dilution, 18 hours at 35° C.
Method in brief: as §1

Staphylococcus sp. = settings: broth dilution, 18 hours at 35° C.
Method in brief: as §1

## CC(c1ccccc1)C1NC(=O)CNC(=O)C(CO[Si](C)(C)C(C)(C)C)NC(=O)C(C(O)C2CNC(=N)N2C2OC3COC(C)(C)OC3C3OC(C)(C)OC32)NC(=O)C(C(O)C2CNC(=N)N2)NC(=O)C(Cc2ccc(O)cc2)NC1=O (stereo not shown) [Example 248]
Escherichia coli
  MIC Escherichia coli (ATCC 25922): 64 µg/mL (≈ 54.9 µM)
  MIC Escherichia coli (GC 4559): 64 µg/mL (≈ 54.9 µM)
  MIC Escherichia coli (GC 4560): 8 µg/mL (≈ 6.86 µM)
Enterococcus sp.
  MIC Enterococcus avium (GC 4558): 8 µg/mL (≈ 6.86 µM)
  MIC Enterococcus faecalis (ATCC 29212): 64 µg/mL (≈ 54.9 µM)
  MIC Enterococcus faecalis (GC 2242): 64 µg/mL (≈ 54.9 µM)
  MIC Enterococcus faecalis (GC 2691): 32 µg/mL (≈ 27.5 µM)
  MIC Enterococcus faecalis (GC 3059): 128 µg/mL (≈ 110 µM)
  MIC Enterococcus faecalis (GC 4552): 128 µg/mL (≈ 110 µM)
  MIC Enterococcus faecalis (GC 4553): 16 µg/mL (≈ 13.7 µM)
  MIC Enterococcus faecalis (GC 4554): 64 µg/mL (≈ 54.9 µM)
  MIC Enterococcus faecalis (GC 6189): 32 µg/mL (≈ 27.5 µM)
  MIC Enterococcus faecium (GC 2243): 32 µg/mL (≈ 27.5 µM)
  MIC Enterococcus faecium (GC 4556): 32 µg/mL (≈ 27.5 µM)
  MIC Enterococcus faecium (GC 4557): 16 µg/mL (≈ 13.7 µM)
Enterococcus sp.; strain ATCC 29212
  MIC Enterococcus faecalis (ATCC 29212): 64 µg/mL (≈ 54.9 µM)
Enterococcus sp.; strain GC 2242
  MIC Enterococcus faecalis (GC 2242): 64 µg/mL (≈ 54.9 µM)
Enterococcus sp.; strain GC 2243
  MIC Enterococcus faecium (GC 2243): 32 µg/mL (≈ 27.5 µM)
Enterococcus sp.; strain GC 2691
  MIC Enterococcus faecalis (GC 2691): 32 µg/mL (≈ 27.5 µM)
Enterococcus sp.; strain GC 3059
  MIC Enterococcus faecalis (GC 3059): 128 µg/mL (≈ 110 µM)
Enterococcus sp.; strain GC 4552
  MIC Enterococcus faecalis (GC 4552): 128 µg/mL (≈ 110 µM)
Enterococcus sp.; strain GC 4553
  MIC Enterococcus faecalis (GC 4553): 16 µg/mL (≈ 13.7 µM)
Enterococcus sp.; strain GC 4554
  MIC Enterococcus faecalis (GC 4554): 64 µg/mL (≈ 54.9 µM)
Enterococcus sp.; strain GC 4556
  MIC Enterococcus faecium (GC 4556): 32 µg/mL (≈ 27.5 µM)
Enterococcus sp.; strain GC 4557
  MIC Enterococcus faecium (GC 4557): 16 µg/mL (≈ 13.7 µM)
Enterococcus sp.; strain GC 4558
  MIC Enterococcus avium (GC 4558): 8 µg/mL (≈ 6.86 µM)
Enterococcus sp.; strain GC 6189
  MIC Enterococcus faecalis (GC 6189): 32 µg/mL (≈ 27.5 µM)
Streptococcus sp.
  MIC Streptococcus agalactiae (GC 4564): 64 µg/mL (≈ 54.9 µM)
  MIC Streptococcus pneumoniae (ATCC 6301): 64 µg/mL (≈ 54.9 µM)
  MIC Streptococcus pneumoniae (GC 1894): 64 µg/mL (≈ 54.9 µM)
  MIC Streptococcus pneumoniae (GC 4565): 128 µg/mL (≈ 110 µM)
  MIC Streptococcus pyogenes (GC 4563): 32 µg/mL (≈ 27.5 µM)
Streptococcus sp.; strain ATCC 6301
  MIC Streptococcus pneumoniae (ATCC 6301): 64 µg/mL (≈ 54.9 µM)
Streptococcus sp.; strain GC 1894
  MIC Streptococcus pneumoniae (GC 1894): 64 µg/mL (≈ 54.9 µM)
Streptococcus sp.; strain GC 4563
  MIC Streptococcus pyogenes (GC 4563): 32 µg/mL (≈ 27.5 µM)
Streptococcus sp.; strain GC 4564
  MIC Streptococcus agalactiae (GC 4564): 64 µg/mL (≈ 54.9 µM)
Streptococcus sp.; strain GC 4565
  MIC Streptococcus pneumoniae (GC 4565): 128 µg/mL (≈ 110 µM)
Staphylococcus sp.
  MIC Coagulase Negative Staphylococcus (GC 4547): 16 µg/mL (≈ 13.7 µM)
  MIC Coagulase Negative Staphylococcus (GC 4548): 32 µg/mL (≈ 27.5 µM)
  MIC Coagulase Negative Staphylococcus (GC 4549): 32 µg/mL (≈ 27.5 µM)
  MIC Coagulase Negative Staphylococcus (GC 4551): 32 µg/mL (≈ 27.5 µM)
  MIC Coagulase Negative Staphylococcus (GC 6257): 16 µg/mL (≈ 13.7 µM)
  MIC Staphylococcus aureus (ATCC 29213): 32 µg/mL (≈ 27.5 µM)
  MIC Staphylococcus aureus (GC 1131): 32 µg/mL (≈ 27.5 µM)
  MIC Staphylococcus aureus (GC 3051): 64 µg/mL (≈ 54.9 µM)
  MIC Staphylococcus aureus (GC 3053): 64 µg/mL (≈ 54.9 µM)
  MIC Staphylococcus aureus (GC 4541): 32 µg/mL (≈ 27.5 µM)
  MIC Staphylococcus aureus (GC 4542): 64 µg/mL (≈ 54.9 µM)
  MIC Staphylococcus aureus (GC 4544): 32 µg/mL (≈ 27.5 µM)
  MIC Staphylococcus aureus (GC 4545): 32 µg/mL (≈ 27.5 µM)
  MIC Staphylococcus aureus-SMITH (GC 4543): 32 µg/mL (≈ 27.5 µM)
  MIC Staphylococcus haemolyticus (GC 4546): 16 µg/mL (≈ 13.7 µM)
Staphylococcus sp.; strain ATCC 29213
  MIC Staphylococcus aureus (ATCC 29213): 32 µg/mL (≈ 27.5 µM)
Staphylococcus sp.; strain GC 1131
  MIC Staphylococcus aureus (GC 1131): 32 µg/mL (≈ 27.5 µM)
Staphylococcus sp.; strain GC 3051
  MIC Staphylococcus aureus (GC 3051): 64 µg/mL (≈ 54.9 µM)
Staphylococcus sp.; strain GC 3053
  MIC Staphylococcus aureus (GC 3053): 64 µg/mL (≈ 54.9 µM)
Staphylococcus sp.; strain GC 4541
  MIC Staphylococcus aureus (GC 4541): 32 µg/mL (≈ 27.5 µM)
Staphylococcus sp.; strain GC 4542
  MIC Staphylococcus aureus (GC 4542): 64 µg/mL (≈ 54.9 µM)
Staphylococcus sp.; strain GC 4543
  MIC Staphylococcus aureus-SMITH (GC 4543): 32 µg/mL (≈ 27.5 µM)
Staphylococcus sp.; strain GC 4544
  MIC Staphylococcus aureus (GC 4544): 32 µg/mL (≈ 27.5 µM)
Staphylococcus sp.; strain GC 4545
  MIC Staphylococcus aureus (GC 4545): 32 µg/mL (≈ 27.5 µM)
Staphylococcus sp.; strain GC 4546
  MIC Staphylococcus haemolyticus (GC 4546): 16 µg/mL (≈ 13.7 µM)
Staphylococcus sp.; strain GC 4547
  MIC Coagulase Negative Staphylococcus (GC 4547): 16 µg/mL (≈ 13.7 µM)
Staphylococcus sp.; strain GC 4548
  MIC Coagulase Negative Staphylococcus (GC 4548): 32 µg/mL (≈ 27.5 µM)
Staphylococcus sp.; strain GC 4549
  MIC Coagulase Negative Staphylococcus (GC 4549): 32 µg/mL (≈ 27.5 µM)
Staphylococcus sp.; strain GC 4551
  MIC Coagulase Negative Staphylococcus (GC 4551): 32 µg/mL (≈ 27.5 µM)
Staphylococcus sp.; strain GC 6257
  MIC Coagulase Negative Staphylococcus (GC 6257): 16 µg/mL (≈ 13.7 µM)
